Measurements published in patent US8512940B2, “Method for preserving liver in a solution comprising dibutyryl cAMP” (Otsuka Pharmaceutical Factory, Inc., priority 2005, dated 2013).

Test system: liver grafts
Format: in vivo
Details: content in ET-K+db-cAMP (2 mM) preservation solution, liver transplanted without final rinsing
Method: Eight-week-old inbred male Lewis rat (SLC) was housed in a chip-bedded cage at room temperature under a 12 hr light/dark cycle and given free access to a standard chow diet and water before operation.
Group I: UW solution group (n=8), Group II: New ET-K solution group (n=6), Group III: modified New ET-K solution group (n=8). The liver was preserved under cooling in each preservation solution for 24 hr, and then syngeneic liver transplantation was performed. Rats were randomly assigned to each group.
In the UW group, the blood in the donor liver portal vein blood vessel was first replaced with 10 ml of Ringer's solution, and then the blood vessel was perfused with 10 ml of UW solution. In the New ET-K group and the modified New ET-K group, the blood in the donor liver portal vein blood vessel was directly replaced with 20 ml of each preservation solution. In all groups, the perfusion with the preservation solution was performed at a pressure of 15 cmH2O. Then, liver grafts were preserved in respective preservation solutions at 4° C. for 24 hr. […]
In the same manner as in Example 1, syngenic liver transplantation was performed on 8-week-old inbred male Lewis rats (SLC), and the survival rate after transplantation of the liver preserved in preservation solutions containing various concentrations of nitroglycerin (NTG) was evaluated. […]

**Q.** `O=[N+]([O-])OCC(CO[N+](=O)[O-])O[N+](=O)[O-]` [nitroglycerin] was tested. Which “nitroglycerin content at which toxicity due to nitroglycerin is hardly expressed” value did it give?
**A.** not more than 0.0044 mM
